Results as given in patent US20220096717A1, “AXITINIB-LOADED NANOFIBER MEMBRANE, PREPARATION METHOD FOR THE SAME, AND ITS USE OF ANTI-ADHESION AFTER A SURGERY” (SHANGHAI CHILDREN'S MEDICAL CENTER, SHANGHAI JIAO TONG …, priority 2020, published 2022).

Assay: Solubility of Axitinib (FIG. 1)
Type: physicochemical
Conditions: FIG. 1A
Method: FIG. 1: pictures showing solubility of Axitinib. A is a picture in which Axitinib is dissolved in water and trifluoroethanol; B is a picture in which gelatin and polycaprolactone are dissolved in trifluoroethanol with and without the addition of Axitinib to the electrospinning solution.
Stirring the solution to forms a milky solution. When it stays for a long period of time, granular precipitation may occur. […] 0.25 g of gelatin and 0.25 g of polycaprolactone were dissolved in 5 ml of trifluoroethanol containing 20 μl of acetic acid to form a transparent solution, and 50 mg of Axitinib was added to form a light yellow transparent solution (B).

solubility in trifluoroethanol (TFE) (trifluoroethanol): quickly dissolved
solubility in water (water): poorly soluble
SMILES: CNC(=O)c1ccccc1Sc1ccc2c(/C=C/c3ccccn3)n[nH]c2c1 [Axitinib]
